In one assay the target is T1, human A2A receptors (Homo sapiens, UniProt P29274).
T1 construct: expressed in transfected cells; host or cells: HEK293
The experiment in a line: Functional human A2A receptor activity, recombinant HEK293 cells, cAMP (HTRF). Format: cell-based. The protocol: (§1) The functional activities of human A2A and A2B receptors were determined by quantification of cAMP, being the second messenger for adenosine receptors.
(§2) After a 15 min incubation, HTRF reagents (cAMP dynamic 2, Cis Bio) were added and the cellular cAMP levels were determined using the ENVISION (Perkin Elmer) plate reader.

In another assay the target is T2, human A2B receptors (Homo sapiens, UniProt P29275).
T2 construct: expressed in transfected cells; host or cells: HEK293
T2 sequence (P29275 1-332): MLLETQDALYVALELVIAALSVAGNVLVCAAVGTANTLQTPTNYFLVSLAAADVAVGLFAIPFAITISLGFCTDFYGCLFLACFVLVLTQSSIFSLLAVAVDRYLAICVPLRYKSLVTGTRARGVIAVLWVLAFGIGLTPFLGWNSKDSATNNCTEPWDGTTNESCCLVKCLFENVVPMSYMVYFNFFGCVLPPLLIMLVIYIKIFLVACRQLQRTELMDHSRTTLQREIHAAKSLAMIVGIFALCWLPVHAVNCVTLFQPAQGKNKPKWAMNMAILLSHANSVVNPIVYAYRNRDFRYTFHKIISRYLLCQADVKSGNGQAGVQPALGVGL
The experiment in a line: Functional human A2B receptor activity, recombinant HEK293 cells, cAMP (HTRF). Format: cell-based. The protocol: as §1, §2
(In TR-FRET formats the signal depends on donor and acceptor labels being close together.)

For 24 compounds, IC50 results are on record in patent US20210380606A1, “5-AZAINDAZOLE DERIVATIVES AS ADENOSINE RECEPTOR ANTAGONISTS” (Merck Patent GmbH, priority 2018, published 2021).

Read-outs that look alike come from different tables or passages of the source.

T1 sequence (P29274 whole entry): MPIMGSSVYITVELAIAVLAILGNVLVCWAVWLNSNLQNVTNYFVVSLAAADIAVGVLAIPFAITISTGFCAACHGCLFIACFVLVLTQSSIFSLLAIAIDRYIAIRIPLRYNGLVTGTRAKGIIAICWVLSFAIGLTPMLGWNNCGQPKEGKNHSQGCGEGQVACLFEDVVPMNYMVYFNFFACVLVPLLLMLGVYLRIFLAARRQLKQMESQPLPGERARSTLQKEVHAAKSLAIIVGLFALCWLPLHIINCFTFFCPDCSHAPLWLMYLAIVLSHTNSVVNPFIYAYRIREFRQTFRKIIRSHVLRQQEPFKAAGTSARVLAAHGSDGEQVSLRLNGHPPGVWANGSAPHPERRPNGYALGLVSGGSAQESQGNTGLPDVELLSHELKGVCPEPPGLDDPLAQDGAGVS

Turning to `O=C(c1cc2c(cn1)c(-c1coc3ccccc13)nn2CC(F)F)N1C2CCC1CC(O)C2` (stereo not drawn) [Compound 220, [3-Benzofuran-3-yl-1-(2,2-difluoro-ethyl)-1H-pyrazolo[4,3-c]pyridin-6-yl]-(3-endo-hydroxy-8-exo-methyl-3-aza-bicyclo[3.2.1]oct-3-yl)-methanone], the values for the IC50 on human A2A receptors (read-out: A2A (Category)) and at human A2B receptors (read-out: A2B (Category)) were below 100 nM and below 1000 nM, respectively.
In the same order, the values of `O=C(c1cc2c(cn1)c(-c1cnc3c(F)cc(F)cn13)nn2CC(F)(F)F)N1CCC(F)(F)CC1` [Compound 146, [3-(6,8-Difluoro-imidazo[1,2-a]pyridin-3-yl)-1-(2,2,2-trifluoro-ethyl)-1H-pyrazolo[4,3-c]pyridin-6-yl]-(4,4-difluoro-piperidin-1-yl)-methanone] are below 100 nM and below 1000 nM.
On to `O=C(c1cc2c(cn1)c(-c1coc3ccccc13)nn2CC(F)(F)F)N1CCC(F)CC1` [Compound 216, [3-Benzofuran-3-yl-1-(2,2,2-trifluoro-ethyl)-1H-pyrazolo[4,3-c]pyridin-6-yl]-(4-fluoro-piperidin-1-yl)-methanone], for which the IC50 on human A2A receptors (read-out: A2A (Category)) is below 100 nM; on human A2B receptors (read-out: A2B (Category)), below 1000 nM.
As for `O=C(c1cc2c(cn1)c(-c1cnc3ccc(F)cn13)nn2CCF)N1CCCCCC1` [Compound 4, Azepan-1-yl-[1-(2-fluoro-ethyl)-3-(6-fluoro-imidazo[1,2-a]pyridin-3-yl)-1H-pyrazolo[4,3-c]pyridin-6-yl]-methenone], the results for the IC50 at human A2A receptors (read-out: A2A (Category)) and on human A2B receptors (read-out: A2B (Category)) were below 100 nM and below 1000 nM, respectively.
In the same order, the values of `O=C(c1cc2c(cn1)c(-c1cnc3ncc(F)cn13)nn2CC(F)(F)F)N1CCCCCC1` [Compound 50, Azepan-1-yl-[3-(6-fluoro-imidazo[1,2-a]pyrimidin-3-yl)-1-(2,2,2-trifluoro-ethyl)-1H-pyrazolo[4,3-c]pyridin-6-yl]-methanone] are below 100 nM and below 1000 nM.
Taken in the same sequence, the figures for `CCCn1nc(-c2coc3ccccc23)c2cnc(C(=O)N3CCCOCC3)cc21` [Compound 106, (3-Benzofuran-3-yl-1-propyl-1H-pyrazolo[4,3-c]pyridin-6-yl)-1,4-oxazepan-4-yl-methanone] were below 100 nM and below 1000 nM.
Taken in the same sequence, the figures for `CS(=O)(=O)Cn1nc(-c2coc3ccccc23)c2cnc(C(=O)N3CC4CCC(C3)O4)cc21` [Compound 107, (3-Benzofuran-3-yl-1-methanesulfonylmethyl-1H-pyrazolo[4,3-c]pyridine-6-yl)-(8-oxa-3-aza-bicyclo[3.2.1]oct-3-yl)-methanone] were below 100 nM and below 100 nM.
`O=C(c1cc2c(cn1)c(-c1cnn3ccccc13)nn2CC(F)(F)F)N1CC2CCC(C2)C1` [Compound 102, (3-Aza-bicyclo[3.2.1]oct-3-yl)-[3-pyrazolo[1,5-a]pyridin-3-yl-1-(2,2,2-trifluoro-ethyl)-1H-pyrazolo[4,3-c]pyridin-6-yl]-methanone]: the IC50 at human A2A receptors (read-out: A2A (Category)) and at human A2B receptors (read-out: A2B (Category)) was below 100 nM throughout.
With `O=C(c1cc2c(cn1)c(-c1cnc3c(F)cc(F)cn13)nn2CC(F)(F)F)N1CC2CCC(C2)C1` [Compound 139, (3-Aza-bicyclo[3.2.1]oct-3-yl)-[3-(6,8-difluoro-imidazo[1,2-a]pyridin-3-yl)-1-(2,2,2-trifluoro-ethyl)-1H-pyrazolo[4,3-c]pyridin-6-yl]-methanone], the IC50 at human A2A receptors (read-out: A2A (Category)) and on human A2B receptors (read-out: A2B (Category)) was below 100 nM in each case.
On to `O=C(c1cc2c(cn1)c(-c1cnc3ccc(F)cn13)nn2CC(F)(F)F)N1CCCCCC1` [Compound 44, Azepan-1-yl-[3-(6-fluoro-imidazo[1,2-a]pyridin-3-yl)-1-(2,2,2-trifluoro-ethyl)-1H-pyrazolo[4,3-c]pyridin-6-yl]-methanone], for which the IC50 on human A2A receptors (read-out: A2A (Category)) and on human A2B receptors (read-out: A2B (Category)) was below 100 nM each time.
On to `CC(C)CC1CN(C(=O)c2cc3c(cn2)c(-c2cnc4c(F)cc(F)cn24)nn3CC(F)(F)F)CCC1O` (stereo not drawn) [Compound 143, [3-(6,8-Difluoro-imidazo[1,2-a]pyridin-3-yl)-1-(2,2,2-trifluoro-ethyl)-1H-pyrazolo[4,3-c]pyridin-6-yl]-(4-hydroxy-3-isobutyl-piperidin-1-yl)-methanone], for which the IC50 on human A2A receptors (read-out: A2A (Category)) was below 100 nM; at human A2B receptors (read-out: A2B (Category)) it was below 1000 nM.
Taken in the same sequence, the figures for `O=C(c1cc2c(cn1)c(-c1nnc3ccccn13)nn2CC(F)(F)F)N1CCCCCC1` [Compound 71, Azepan-1-yl-[3-[1,2,4]triazolo[4,3-a]pyridin-3-yl-1-(2,2,2-trifluoro-ethyl)-1H-pyrazolo[4,3-c]pyridin-6-yl]-methanone] were below 100 nM and below 1000 nM.
For the compound `O=C(c1ccc2c(-c3cnc4c(F)cc(F)cn34)nn(CC(F)(F)F)c2c1)N1CCCCCC1` [analogue to No. 60, reference compound], the IC50 at human A2A receptors (read-out: Functional A2A receptor activity, HEK293, cAMP, IC50) was below 100 nM; at human A2B receptors (read-out: Functional A2B receptor activity HEK293, cAMP IC50) it was below 1000 nM.
For `CS(=O)(=O)Cn1nc(-c2cnc3c(F)cc(F)cn23)c2cnc(C(=O)N3CC4CCC(C3)O4)cc21` [Compound 27, [3-(6,8-Difluoro-imidazo[1,2-a]pyridin-3-yl)-1-methanesulfonylmethyl-1H-pyrazolo[4,3 c]pyridin-6-yl]-(8-oxa-3-aza-bicyclo[3.2.1]oct-3-yl)-methanone], the IC50 was below 100 nM on human A2A receptors (read-out: A2A (Category)) and below 1000 nM at human A2B receptors (read-out: A2B (Category)).
In the case of `O=C(c1cc2c(cn1)c(-c1c[nH]c3ccccc13)nn2CC(F)(F)F)N1CC2CCC(C1)O2` [Compound 243, [3-(1H-indol-3-yl)-1-(2,2,2-trifluoroethyl)pyrazolo[4,3-c]pyridin-6-yl]-(8-oxa-3-azabicyclo[3.2.1]octan-3-yl)methanone], the IC50 is below 100 nM on human A2A receptors (read-out: A2A (Category)) and below 1000 nM on human A2B receptors (read-out: A2B (Category)).
As to `CS(=O)(=O)n1nc(-c2cnc3c(F)cc(F)cn23)c2cnc(C(=O)N3CCCOCC3)cc21` [Compound 10, [3-(6,8-Difluoro-imidazo[1,2-a]pyridin-3-yl)-1-methanesulfonyl-1H-pyrazolo[4,3-c]pyridin-6-yl]-1,4-oxazepan-4-yl-methanone], the IC50 on human A2A receptors (read-out: A2A (Category)) is below 100 nM; on human A2B receptors (read-out: A2B (Category)), below 1000 nM.
With `CC1(O)C2CCC1CN(C(=O)c1cc3c(cn1)c(-c1coc4ccccc14)nn3CS(C)(=O)=O)C2` (stereo not drawn) [Compound 28, (3-Benzofuran-3-yl-1-methanesulfonylmethyl-1H-pyrazolo[4,3-c]pyridin-6-yl)-(8-endo-hydroxy-8-exo-methyl-d3-3-aza-bicyclo[3.2.1]oct-3-yl)-methanone], the IC50 on human A2A receptors (recombinant HEK293 cells expressing human A2A receptor, agonist NECA, cAMP HTRF, 15 min incubation, read-out: A2A (Category)) was below 100 nM; at human A2B receptors (recombinant HEK293 cells expressing human A2B receptor, agonist NECA, cAMP HTRF, 15 min incubation, read-out: A2B (Category)), below 100 nM.
For `O=C(c1cc2c(cn1)c(-c1coc3ccccc13)nn2CCF)N1CCCOCC1` [Compound 104, [3-Benzofuran-3-yl-1-(2-fluoro-ethyl)-1H-pyrazolo[4,3-c]pyridin-6-yl]-1,4-oxazepan-4-yl-methanone], the IC50 was below 100 nM at human A2A receptors (read-out: A2A (Category)) and below 1000 nM at human A2B receptors (read-out: A2B (Category)).
`CC(C)C1CC(O)CCN1C(=O)c1cc2c(cn1)c(-c1cnc3c(F)cc(F)cn13)nn2CC(F)(F)F` (stereo not drawn) [Compound 141, [3-(6,8-Difluoro-imidazo[1,2-a]pyridin-3-yl)-1-(2,2,2-trifluoro-ethyl)-1H-pyrazolo[4,3-c]pyridin-6-yl]-(4-hydroxy-2-isopropyl-piperidin-1-yl)-methanone]: the figures for the IC50 at human A2A receptors (read-out: A2A (Category)) and on human A2B receptors (read-out: A2B (Category)) were below 100 nM and below 1000 nM, respectively.
In the same order, the values of `CS(=O)(=O)Cn1nc(-c2cnn3ccccc23)c2cnc(C(=O)N3CCCOCC3)cc21` [Compound 17, (1-Methanesulfonylmethyl-3-pyrazolo[1,5-a]pyridin-3-yl-1H-pyrazolo[4,3-c]pyridin-6-yl)-1,4-oxazepan-4-yl-methanone] are below 100 nM and below 100 nM.
Taken in the same sequence, the figures for `O=C(c1cc2c(cn1)c(-c1cnc3c(F)cc(F)cn13)nn2CC(F)(F)F)N1CCC(O)C(F)(F)C1` (stereo not drawn) [Compound 203, (3,3-Difluoro-4-hydroxy-piperidin-1-yl)-[3-(6,8-difluoro-imidazo[1,2-a]pyridin-3-yl)-1-(2,2,2-trifluoro-ethyl)-1H-pyrazolo[4,3-c]pyridin-6-yl]-methanone] were below 100 nM and below 1000 nM.
For the compound `O=C(c1cc2c(cn1)c(-c1cnc3ccc(F)cn13)nn2CC(F)F)N1CCCCCC1` [Compound 3, Azepan-1-yl-[1-(2,2-difluoro-ethyl)-3-(6-fluoro-imidazo[1,2-a]pyridin-3-yl)-1H-pyrazolo[4,3-c]pyridin-6-yl]-methanone], the IC50 at human A2A receptors (read-out: A2A (Category)) and on human A2B receptors (read-out: A2B (Category)) was below 100 nM in each case.
For the compound `N#CCn1nc(-c2coc3ccccc23)c2cnc(C(=O)N3CCCOCC3)cc21` [Compound 13, [3-Benzofuran-3-yl-6-(1,4-oxazepane-4-carbonyl)-pyrazolo[4,3-c]pyridin-1-yl]-acetonitrile], the IC50 on human A2A receptors (read-out: A2A (Category)) was below 100 nM; at human A2B receptors (read-out: A2B (Category)), below 1000 nM.
Taken in the same sequence, the figures for `CS(=O)(=O)Cn1nc(-c2coc3ccccc23)c2cnc(C(=O)N3CCC(O)CC3)cc21` [Compound 36, (3-Benzofuran-3-yl-1-methanesulfonylmethyl-1H-pyrazolo[4,3-c]pyridin-6-yl)-(4-hydroxy-piperidin-1-yl)-methanone] were below 100 nM and below 100 nM.
